The text below walks through data of patent EP0184291B1, “Polyether antibiotic A80190” (ELI LILLY AND COMPANY, priority 1984, dated 1986).

In assay [1] the test system is A. macra. Nature of the assay: Resistance to antibiotics, sensitivity discs on seeded ISP No. 2 agar. It is filed as cell-based. The method, then: (§1) Resistance to antibiotics was measured by padding antibiotic sensitivity discs onto the surface of seeded ISP No. 2 agar plates.
(§2) Table III lists the resistance of the strain to various antibiotics at the concentrations indicated and compares it to that of A. macra.

Assay [2] has as its system NRRL 15878. The assay is described as above. It is filed as cell-based, Actinomadura oligospora. The method, then: as §1, §2
In assay [3] the test system is Eimeria acervulina (Lilly strain 59), Eimeria maxima (strain FS-177) and Eimeria tenella (strain FS-155). Nature of the assay: Coccidiosis test in broiler chicks, A80190 with nicarbazin (Test 1). It is filed as in vivo. The following applies: A80190 0 p.p.m. in ration.

On to `NC[C@@H]1O[C@H](O[C@H]2[C@@H](O)[C@H](O[C@@H]3[C@@H](O)[C@H](N)C[C@H](N)[C@H]3O[C@H]3O[C@H](CN)[C@@H](O)[C@H](O)[C@H]3N)O[C@@H]2CO)[C@H](N)[C@@H](O)[C@@H]1O` [Neomycin], for which the “Resistance to Antibiotics” value in assay [1] (Concentration 30 µg) and in assay [2] (Concentration 30 µg) was “-” throughout.
As to `[H]/N=C(/N)N[C@H]1[C@H](O)[C@@H](O)[C@H](O[C@@H]2O[C@@H](C)[C@](O)(C=O)[C@H]2O[C@@H]2O[C@@H](CO)[C@H](O)[C@@H](O)[C@@H]2NC)[C@@H](N/C(N)=N\[H])[C@@H]1O` [Streptomycin], the “Resistance to Antibiotics” value in assay [2] (Concentration 10 µg) was “-”.
For `CCC[C@@H]1C[C@@H](C(=O)N[C@@H]([C@H]2O[C@H](SC)[C@H](O)[C@@H](O)[C@H]2O)[C@@H](C)O)N(C)C1` [Lincomycin], the “Resistance to Antibiotics” value in assay [1] (Concentration 2 µg) and in assay [2] (Concentration 2 µg) was “+” each time.
Take `CN(C)[C@@H]1C(O)=C(C(N)=O)C(=O)[C@@]2(O)C(O)=C3C(=O)c4c(O)cccc4[C@@](C)(O)[C@H]3C[C@@H]12` [Tetracycline]: the “Resistance to Antibiotics” value in assay [2] (Concentration 30 µg) was “-”.
For `NC[C@H]1O[C@H](O[C@H]2[C@H](O)[C@@H](O[C@H]3O[C@H](CO)[C@@H](O)[C@H](N)[C@H]3O)[C@H](N)C[C@@H]2N)[C@H](N)C[C@@H]1O` [Tobramycin], the “Resistance to Antibiotics” value in assay [1] (Concentration 10 µg) and in assay [2] (Concentration 10 µg) was “-” each time.
`CO[C@H]1C[C@H](O[C@H]2[C@H](C)[C@@H](O[C@@H]3O[C@H](C)C[C@H](N(C)C)[C@H]3O)[C@@H](C)C[C@@]3(CO3)C(=O)[C@H](C)[C@@H](O)[C@@H](C)[C@@H](C)OC(=O)[C@@H]2C)O[C@@H](C)[C@@H]1O` [Oleandomycin]: the “Resistance to Antibiotics” value in assay [2] (Concentration 15 µg) was “-”.
As for `CO[C@H]1/C=C/O[C@@]2(C)Oc3c(C)c(O)c4c(O)c(c(/C=N/N5CCN(C)CC5)c(O)c4c3C2=O)NC(=O)/C(C)=C\C=C\[C@H](C)[C@H](O)[C@@H](C)[C@@H](O)[C@@H](C)[C@H](OC(C)=O)[C@@H]1C` [Rifampin], the “Resistance to Antibiotics” value in assay [2] (Concentration 5 µg) is given as “+”.
Take `CC1(C)S[C@@H]2[C@H](NC(=O)Cc3ccccc3)C(=O)N2[C@H]1C(=O)O` [Pencillin G]: the “Resistance to Antibiotics” value in assay [2] (Concentration 10 units) is reported as “+”.
As for Nicarbazin [reference compound], the “CECAL LESION SCORES” value in assay [3] (Nicarbazin 20 p.p.m.) stood at 3.19; in assay [3] (Nicarbazin 30 p.p.m.) it was 3.50; in assay [3] (Nicarbazin 40 p.p.m.), 3.17; in assay [3] (Nicarbazin 50 p.p.m.) it was 3.19; in assay [3] (Nicarbazin 125 p.p.m.), 0.33. The “INTESTINAL LESION SCORES” value came to 9.13 in assay [3] (Nicarbazin 20 p.p.m.); 8.88 in assay [3] (Nicarbazin 30 p.p.m.); 8.90 in assay [3] (Nicarbazin 40 p.p.m.); 8.56 in assay [3] (Nicarbazin 50 p.p.m.); 0.08 in assay [3] (Nicarbazin 125 p.p.m.). In addition, the “WEIGHT GAIN” value in assay [3] (Nicarbazin 20 p.p.m.) was determined as 159 grams/per chicken; in assay [3] (Nicarbazin 30 p.p.m.), 174 grams/per chicken; in assay [3] (Nicarbazin 40 p.p.m.), 211 grams/per chicken; in assay [3] (Nicarbazin 50 p.p.m.), 222 grams/per chicken; in assay [3] (Nicarbazin 125 p.p.m.), 279 grams/per chicken.
For `CC(=O)OCC1=C(C(=O)O)N2C(=O)[C@@H](NC(=O)Cc3cccs3)[C@H]2SC1` [Cephalothin], the “Resistance to Antibiotics” value in assay [2] (Concentration 30 µg) is reported as “+”.
